Test results taken from PMC9369610, “Pro-Apoptotic and Pro-Autophagic Properties of Cardenolides from Aerial Parts of Pergularia tomentosa” (Molecules, 2022).

Columns and labels:
MRC5 cells = assay: MTT cell viability assay, IC50 in MRC5 cells; assay type: cell-based; conditions: Homo sapiens, 24 h, SE less than 10% of value
Experimental: (§1) The human liver hepatocellular carcinoma cell line, HepG2, and the human adenocarcinoma of colon cell line, Caco-2, were cultured in Eagle’s Minimum Essential medium supplemented with 1% (v/v) non-essential amino acids, 0.2 mM L-glutamine, 50 units/mL penicillin, 50 μg/mL streptomycin and 10% (v/v) or 20% (v/v) fetal bovine serum (Sigma Aldrich, Milan, Italy) for HepG2 or Caco-2, respectively. The human embryonal lung fibroblast cell line, MRC5, was cultured in Dulbecco’s Modified Eagle medium (Sigma Aldrich, Milan, Italy) supplemented with 10% (v/v) fetal bovine serum, 0.2 mM L-glutamine, 50 units/mL penicillin and 50 μg/mL streptomycin. HUVEC cells were cultured in endothelial growth medium-2, supplemented with fetal bovine serum (2%), VEGF (0.1%), rH FGF-B (0.4%), rH EGF (0.1%), GA-1000 (0.1%), hydrocortisone (0.04%), R3-IGF-1 (0.1%), heparin (0.1%) and ascorbic acid (0.1%). Cells were maintained at 37 °C in a 5% CO2, 95% air-humidified atmosphere and passaged twice a week. Cell lines were obtained from Interlab Cell Line Collection, Istituto Nazionale per la Ricerca sul Cancro, Genoa, Italy. HUVEC were obtained from Lonza (Milan, Italy).
(§2) An MTT assay was used to analyse cell viability. Cells were seeded in 96 wells at the density of 2 × 10^4/cm^2 and, after 24 h, they were treated with P. tomentosa compounds or with the vehicle (DMSO). After a further 24 h of treatment, 0.5 mg/mL of MTT was added to the cell medium and incubated for 1.5 h at 37 °C. The resulting formazan crystals were dissolved in 100 μL of DMSO and absorbances were measured at 595 nm and 655 nm. The background signals at 655 nm were subtracted from 595 nm signals, and data were expressed as a percent of cell viability. The concentration of each compound that is required for 50% inhibition in vitro (IC50) was calculated as described in Husseini et al.. IC50 values were obtained for Caco-2, HepG2 and MRC5 cells by performing MTT assays with concentrations ranging from 0.01 μg/mL to 5 μg/mL.

HepG2 cells [1] = assay: TUNEL assay; assay type: cell-based, human; conditions: HepG2, 1 μM, 24 h
Experimental: Microscopic evaluation of apoptosis was performed by a TUNEL assay, using a commercial kit (Fragment End Labelling (FragEL™), […]) DNA Fragmentation Detection Kit, Sigma-Aldrich, Milan, Italy) according to the manufacturer-provided protocol, with some modifications. Briefly, cells were seeded on glass cover slips placed in 24-well plates at a density of 3.5 × 10^3/cm^2 and, after 48 h, they were treated with 1 μΜ of each compound for a further 24 h. Cells were fixed in 3% paraformaldehyde for 10 min, permeabilised in 0.2% Triton X-100 for 5 min and treated with HCl 1.5 N for 8 min. Finally, cover slips were equilibrated in equilibration buffer (10 min) and incubated with label mix containing the TdT enzyme for 1 h at 37 °C, then mounted with mounting media. Microscope observations were performed by the AxioSkop 40 fluorescent microscope. Images were acquired with Axiocam MRc5 (Carl Zeiss MicroImaging, Inc., Jena, Germany).

HepG2 cells [2] = assay: Transwell migration assay; assay type: cell-based, human; conditions: HepG2, 1 μM, 18 h
Experimental: Transwell filters (coated with collagen) in serum-free media containing 0.1% of BSA, with a PET membrane with 8 μm pores (BD Biosciences, Milan, Italy), were rehydrated for 2 h at 37 °C. HepG2 were seeded in the upper chambers at a density of 75 × 10^3 cells in MEM with 0.1% BSA and treated with or without 1 µM of Pergularia compounds. MEM−0.1%BSA, supplemented with 10% FBS, was added to the lower chamber as chemoattractant. Control wells without 10% FBS were included to assess random migration. After incubation at 37 °C in 5% CO2 for 18 h, the migrated cells were fixed with 4% paraformaldehyde for 5 min, permeabilised with methanol for 20 min and stained with crystal violet 0.5% for 15 min at room temperature. The cells on the lower side of the filter were allowed to dry before counting. Eight separate bright-field images were randomly acquired of each filter using an Olympus CKX41 Image Analyzer. The cells in each image were counted and analysed compared to control-transfected cells.

HepG2 cells [3] = assay: MTT cell viability assay, IC50 in HepG2 cells; assay type: cell-based; conditions: Homo sapiens, 24 h, SE less than 10% of value
Experimental: as §1, §2

[4] = system: HepG2, Caco-2, MRC5 and HUVEC cells; assay: MTT assay, comparison of cytotoxic effects at 1 μM on four cell types; assay type: cell-based, human; conditions: 24 h, Caco-2, HepG2, MRC5, HUVEC
From the text: We focused attention on 12β,6′-dihydroxycalotropin (1), 16α-hydroxycalotropin (2), 12β-hydroxycalactin (3), calotropin (4), and calactin (5), among those described by Hosseini et al., and tested their cytotoxic activity by a 3-(4,5-dime-thylthiazol-2-yl)-2,5-diphenylte-tetrazolium bromide (MTT) assay on two cancer cell lines (HepG2 and Caco-2), not previously employed, on an immortalised nontumoral cell line (MRC5) and normal primary cells (HUVEC).
Figure 2 Comparison of cytotoxic effects of P. tomentosa compounds on cancer cell lines (Caco-2 and HepG2), on an immortalised cell line (MRC5) and normal cells (HUVEC). Cells were treated for 24 h with 1 μM of each compound. Residual viability was measured by the MTT assay. Values are the means ± standard error (SE) of three independent experiments performed in triplicate. Statistical analysis was performed using the Student’s t-test. * p < 0.05 and ** p < 0.01 vs. cells treated with the vehicle (DMSO).
as §1, §2

caspase-3 in HepG2 cells [5] = assay: Caspase-3 colorimetric activity assay; assay type: cell-based, human; conditions: HepG2, 1 μM, 24 h
Experimental: To evaluate apoptosis, a caspase-3 colorimetric assay was performed. Briefly, HepG2 cell lines were seeded in plates of 60 mm diameter at a density of 3.5 × 10^4/cm^2 and, after 24 h, treated with P. tomentosa compounds (1 μM each) for 24 h. Then, cells were harvested in phosphate-buffered saline, collected by centrifugation and lysed in a buffer containing 50 mM HEPES, 0.1% CHAPS, 10 mM dithiothreitol, 100 mM NaCl, 1 mM EDTA and 10% sucrose. Proteins (30 μg) were incubated for 2 h at 37 °C in a reaction mixture containing the caspase-3 substrate (acetyl-Asp-Glu-Val-Asp, labelled with p-nitroanilide) (Sigma-aldrich, Milan, Italy) at a concentration of 0.2 mM. Finally, the release of free p-nitroanilide was monitored spectrophotometrically at 405 nm. Enzyme activity was expressed as percentage of absorption of treated cells versus vehicle-treated cells.

Caco-2 cells = assay: MTT cell viability assay, IC50 in Caco-2 cells; assay type: cell-based; conditions: Homo sapiens, 24 h, SE less than 10% of value
Experimental: as §1, §2

HepG2 cells [6] = assay: Scratch-wound-healing assay; assay type: cell-based, human; conditions: HepG2, 1 μM, 24, 48 and 72 h
Experimental: Cells were seeded at a density of 5 × 10^4 cells/well in 24-well plates and allowed to grow for 72 h, reaching confluence. Mitomycin C (10 μg/mL) was added to inhibit proliferation, and then a sterile 2–10 μL pipette tip was used to perform a vertical scratch in the monolayer of each well. Detached cells were removed by washing with phosphate-buffered saline. Then, 300 μL of fresh medium containing P. tomentosa compounds (1 μM) or vehicle was added to each well and incubated for 72 h. Images of migrating cells were taken at 0, 24, 48 and 72 h, by using an Olympus CKX41 fluorescent microscope (Olympus Italia srl, Segrate, Italy) and elaborated by the ImageJ software. For each scratch, wound width was calculated as the average distance between the edges in four different sites. Then, reductions in wound wights at 24, 48 and 72 h were expressed as % of the width at time zero.

HepG2 cells [7] = assay: BrdU incorporation (proliferation) assay; assay type: cell-based, human; conditions: HepG2, 1 μM, 24 h
Experimental: Cell proliferation was analysed by a BrdU (Roche Diagnostics SpA, Monza, Italy) incorporation assay, as previously described. Briefly, HepG2 cells, seeded at adensity of 3 × 10^3/cm^2 on round glass cover slips, were treated for 24 h with P. tomentosa compounds at 1 μM. Then, BrdU was added to cell medium (final concentration, 100 μM) for 1 h. Cells were fixed (in 3% paraformaldehyde, 10 min), permeabilised (in 0.2% Triton X-100, 5 min) and treated with HCl 1.5 N (5 min). Finally, cover slips were incubated with a monoclonal antibody against BrdU (Sigma-Aldrich, Milan, Italy), 1:100, and with a TRITC-conjugated secondary antibody, 1:100. After staining with Hoechst, cover slips were mounted with Mowiol (Sigma, Milan, Italy). […] Images were acquired with Axiocam MRc5 and processed with ImageJ Launcher. The number of cells into S-phase was expressed as the ratio between the number of cells incorporating BrdU and the total number of cells.

caspase-3 in HepG2 cells [8] = assay: Western blot of cleaved caspase-3; assay type: cell-based, human; conditions: HepG2, 2 μM, 7 h, Western blot densitometry
Experimental: To analyse the protein levels of p53, caspase-3, GRP78, LC3 and p62, HepG2 cells were treated with P. tomentosa compounds (1 or 2 μM) or with DMSO for the indicated times; then, Western blot analyses were performed. Briefly, cells were lysed in RIPA buffer (20 mM Tris-HCl, pH 7.5, 150 mM NaCl, 1 mM EDTA, 1 mM dithiothreitol, 0.1% sodium dodecyl sulphate, 1% triton X-100, 1 mM orthovanadate, and a cocktail of inhibitors (Sigma-Aldrich, Milan, Italy)). After separation on a sodium dodecyl sulphate-polyacrylamide gel electrophoresis and transfer to a poly-vinylidene fluoride membrane (Euroclone, Milan, Italy), the following primary antibodies were used, at a dilution of 1:1000 in tris-buffered saline containing 1% non-fat dry milk, overnight at 4 °C: mouse anti-p53 antibody, mouse anti-MAP LC3 β antibody, mouse anti-p62 antibody (DBA, Milan, Italy), mouse anti-GRP78 antibody, and mouse anti-caspase 3 antibody (Thermo Fisher Scientific, Milan, Italy). For normalisation, a mouse anti-GAPDH antibody (Microtech, Naples, Italy) was used.

XBP1 in HepG2 cells = assay: XBP1 splicing detection; assay type: cell-based, human; conditions: HepG2, 1 μM, 4 h
Experimental: To detect the unspliced and the spliced form of XBP1, we followed the protocol described by Martucciello et al.. After treatments for 4 h with 1 μM of each compound, or DMSO, or thapsigargin (1 μM), RNA was isolated and retro-transcripted. PCR analyses were performed with the following primers: 5′- […]-3′; 5′-[…]-3′. After 35 cycles (heating at 94 °C for 30 s, annealing at 58 °C for 45 s, and polymerisation at 72 °C for 60 s), amplified cDNA was visualised on 2.5% agarose gel, stained with an ethidium bromide solution.

Row | SMILES | IC50 (MRC5 cells) [nM] | apoptotic nuclei (TUNEL) (HepG2 cells [1]) | effect on transwell migration (HepG2 cells [2]) | IC50 (HepG2 cells [3]) [nM] | relative cytotoxicity (residual viability, MTT) [4] | caspase-3 activity (caspase-3 in HepG2 cells [5]) | IC50 (Caco-2 cells) [nM] | effect on wound closure (HepG2 cells [6]) | effect on BrdU incorporation / cell cycle progression (HepG2 cells [7]) | cleaved caspase-3 (caspase-3 activation) (caspase-3 in HepG2 cells [8]) | reduction of number of cells that incorporated BrdU compared to the vehicle (HepG2 cells [7]) | XBP1 splicing (XBP1 in HepG2 cells)
1 | C[C@@H]1C[C@@H](O)[C@]2(O)O[C@@H]3C[C@@]4(C=O)C(CCC5C4C[C@@H](O)[C@]4(C)C(C6=CC(=O)OC6)CC[C@]54O)C[C@H]3O[C@@H]2O1 (stereo partly drawn) [Compound 3, 12β-hydroxycalactin] | 5980 | undetectable | reduce migration | 6280 | less cytotoxic | did not seem to affect enzyme activity | 4510 | had an effect at 48 h only | slightly (but not significantly) reduced BrdU incorporation | – | – | –
2 | C[C@@H]1C[C@H](O)[C@]2(O)O[C@@H]3C[C@@]4(C=O)[C@@H](CC[C@@H]5[C@@H]4CC[C@]4(C)[C@@H](C6=CC(=O)OC6)CC[C@]54O)C[C@H]3O[C@@H]2O1 [Compound 4, calotropin] | 424 | occurrence of apoptotic nuclei | – | 830 | most cytotoxic | – | 767 | not affect cell migration, at any time | significantly affected cell cycle progression | most active | about 40% | –
3 | C[C@@]12C(C3=CC(=O)OC3)CC[C@]1(O)C1CCC3C[C@H]4O[C@@H]5O[C@H](CO)C[C@H](O)[C@]5(O)O[C@@H]4C[C@]3(C=O)C1C[C@H]2O (stereo partly drawn) [Compound 1, 12β,6′-dihydroxycalotropin] | 2210 | less evident | reduce migration | 2610 | intermediate cytotoxicity | – | 1540 | interfered with the wound closure after 48 and 72 h | slightly (but not significantly) reduced BrdU incorporation | – | – | –
4 | C[C@@H]1C[C@H](O)[C@]2(O)O[C@@H]3C[C@@]4(C=O)C(CCC5C4CC[C@]4(C)C(C6=CC(=O)OC6)[C@H](O)C[C@]54O)C[C@H]3O[C@@H]2O1 (stereo partly drawn) [Compound 2, 16α-hydroxycalotropin] | 2320 | less evident | – | 2340 | intermediate cytotoxicity | – | 2430 | interfered with the wound closure at 72 h only | significantly affected cell cycle progression | – | – | –
5 | C/C=C(/C)C(=O)O[C@H]1C(C)=C2[C@H]([C@@H]1OC(=O)CCCCCCC)[C@@](C)(OC(C)=O)C[C@H](OC(=O)CCC)[C@@]1(O)[C@H]2OC(=O)[C@@]1(C)O [thapsigargin] | – | – | – | – | – | – | – | – | – | – | – | appearance of the spliced form
